US5621010A, “Urea derivatives and their use as ACAT inhibitors” (Nisshin Flour Milling Co., Ltd., priority 1993, dated 1997)

Columns and labels:
[1] = system: ACAT (liver microsome fractions of male rabbits); assay: ACAT inhibitory activity: formation of labelled cholesteryl esters from [1-14C]oleoyl-CoA and endogenous cholesterol; type: biochemical, rabbit; conditions: compound added at 10^-7 M
Method: The enzyme preparation, ACAT was prepared from liver microsme fractions of male rabbits according to the method of E. E. Largis et al. (Journal of Lipid Research, Vol. 30, pages 681-690, 1989). The activity was calculated by assaying the amount of the labelled cholesteryl esters formed from [1-^14 C]oleoyl-CoA and endogenous cholesterol according to the method of Kazuichi NATORI et al. (Japan J. Pharmacol., Vol. 42, pages 517-523, 1986).
The result is shown in Table 1, in which percent inhibition of the formation of the labelled cholesteryl esters with a compound added at 10^-7 M is indicated as index for the ACAT inhibitory activity.

Human LDL = assay: Antioxidative activity: inhibition of MDA formation from LDL incubated with cupric sulfate; type: biochemical; conditions: compound 10^-5 M; cupric sulfate 5×10^-6 M; 5 hrs; compared with control
Method: Human LDL was incubated in the presence of cupric sulfate (5×10^-6 M) and in the presence or absence of a compound (10^-5 M) for 5 hrs. After the incubation, the peroxidation of low-density lipoproteins (LDL) is evaluated by the formation of malondialdehyde (MDA), which is a sort of lipid peroxides according to the method of Simon J. T. Mao et al. (J. Med. Chem., Vol. 34, pages 298-302, 1991). Activity of the compound is shown by percent inhibition of the MDA formation as compared with control.

[2] = Cholesterol-lowering activity in hypercholesteremic rats; type: in vivo, Sprague-Dawley male rats; conditions: 30 mg/kg oral, in 0.5% methylcellulose; plasma cholesterol prior to and 5 hrs after administration
Method: Sprague-Dawley male rats were given a powdery feed containing 1% cholesterol and 0.5% cholic acid in an amount of 15 g per day per animal for 3 days to produce hypercholesteremic rats. Four days later, a compound suspended in 0.5% methylcellulose was administered orally at a dose of 30 mg/kg. Blood was drawn prior to and 5 hrs after the administration of the compound, for which the plasma cholesterol level was measured using a commercially available assay kit (Cholesterol E Test Wako, Wako Junyaku K.K.).

Compound | ACAT Inhibition [1] | Antioxidant Activity (percent inhibition of the MDA formation) (Human LDL) | Percent Reduction of Cholesterol [2]
CC(C)(C)c1cc(CCc2ccccc2NC(=O)NCc2ccco2)cc(C(C)(C)C)c1O [Example 30, N-[2-(3,5-di-tert-butyl-4-hydroxyphenethyl)phenyl]-N'-[(2-furyl)methyl]urea] | 84% | 92% | 
CC(C)(C)c1cc(CCc2ccccc2NC(=O)NC2CCN(Cc3ccccc3)CC2)cc(C(C)(C)C)c1O [Example 35, N-[2-(3,5-di-tert-butyl-4-hydroxyphenethyl)phenyl]-N'-(1-benzyl-4-piperidyl)urea] | 82% | 94% | 48.4%
CCSCCNC(=O)Nc1ccccc1CCc1cc(C(C)(C)C)c(O)c(C(C)(C)C)c1 [Example 38, N-[2-(3,5-di-tert-butyl-4-hydroxyphenethyl)phenyl]-N'-(2-ethylthioethyl)urea] | 71% | 94% | 
CN1CC2CC(NC(=O)Nc3ccccc3CCc3cc(C(C)(C)C)c(O)c(C(C)(C)C)c3)CC(C1)N2C (stereo not drawn) [Example 39, N-[2-(3,5-di-tert-butyl-4-hydroxyphenethyl)phenyl]-N'-(3,9-dimethyl-3,9-diazabicyclo[3.3.1]-7-nonyl)urea] | 88% | 87% | 
CCCCCCCN(Cc1ccccc1)C(=O)Nc1ccccc1CCc1cc(C(C)(C)C)c(O)c(C(C)(C)C)c1 [Example 40, N-[2-(3,5-di-tert-butyl-4-hydroxyphenethyl)phenyl]-N'-benzyl-N'-heptylurea] | 96% | 98% | 
CCCCCCCN(C)C(=O)Nc1ccccc1CCc1cc(C(C)(C)C)c(O)c(C(C)(C)C)c1 [Example 41, N-[2-(3,5-di-tert-butyl-4-hydroxyphenethyl)phenyl]-N'-heptyl-N'-methylurea] | 97% | 99% | 
CC(C)(C)c1cc(CCc2ccccc2NC(=O)N(Cc2ccccc2)Cc2ccccc2)cc(C(C)(C)C)c1O [Example 42, N-[2-(3,5-di-tert-butyl-4-hydroxyphenethyl)phenyl]-N',N'-dibenzylurea] | 95% | 97% | 
CN(C(=O)Nc1ccccc1CCc1cc(C(C)(C)C)c(O)c(C(C)(C)C)c1)C1CCCCC1 [Example 43, N-[2-(3,5-di-tert-butyl-4-hydroxyphenethyl)phenyl]-N'-cyclohexyl-N'-methylurea] | 99% | 99% | 
CN(Cc1c2ccccc2cc2ccccc12)C(=O)Nc1ccccc1CCc1cc(C(C)(C)C)c(O)c(C(C)(C)C)c1 [Example 44, N-[2-(3,5-di-tert-butyl-4-hydroxyphenethyl)phenyl]-N'-(9-anthryl)methyl-N'-methylurea] | 90% | 94% | 
CC(C)(C)c1cc(CCc2ccccc2NC(=O)NC(C2CCCCC2)C2CCCCC2)cc(C(C)(C)C)c1O [Example 50, N-[2-(3,5-di-tert-butyl-4-hydroxyphenethyl)phenyl]-N'-(dicyclohexylmethyl)urea] | 88% | 90% | 
CC(C)(C)c1cc(CCc2ccccc2NC(=O)NC2CCC(C(C)(C)C)CC2)cc(C(C)(C)C)c1O (stereo not drawn) [Example 52, N-[2-(3,5-di-tert-butyl-4-hydroxyphenethyl)phenyl]-N'-(4-tert-butylcyclohexyl)urea] | 97% | 94% | 
CC(C)(C)c1cc(CCc2ccccc2NC(=O)NC2CCC(OCc3ccccc3)CC2)cc(C(C)(C)C)c1O (stereo not drawn) [Example 57] | 89% | 95% | 
CCOC(=O)[C@@H](NC(=O)Nc1ccccc1CCc1cc(C(C)(C)C)c(O)c(C(C)(C)C)c1)c1ccccc1 [Example 69, (S)-N-[2-(3,5-di-tert-butyl-4-hydroxyphenethyl)phenyl]-N'-(α-ethoxycarbonyl)benzylurea] | 96% | 95% | 
CC(C)(C)c1cc(CCc2ccccc2NC(=O)NC(C)(C)c2ccc(Cl)c(Cl)c2)cc(C(C)(C)C)c1O [Example 74, N-[2-(3,5-di-tert-butyl-4-hydroxyphenethyl)phenyl]-N'-[2-(3,4-dichlorophenyl)-2-propyl]urea] | 96% | 95% | 
CN(C)c1ccc(CCNC(=O)Nc2ccccc2CCc2cc(C(C)(C)C)c(O)c(C(C)(C)C)c2)cc1 [Example 75, N-[2-(3,5-di-tert-butyl-4-hydroxyphenethyl)phenyl]-N'-(4-dimethylaminophenethyl)urea] | 88% | 95% | 
CC(C)(C)c1cc(CCc2ccccc2NC(=O)NCC2(c3ccc4c(c3)OCO4)CCCC2)cc(C(C)(C)C)c1O [Example 76, N-[2-(3,5-di-tert-butyl-4-hydroxyphenethyl)phenyl]-N'-[[1-(3,4-methylenedioxyphenyl)cyclopentyl]methyl]urea] | 98% | 96% | 
CC(C)(C)c1cc(CCc2ccccc2NC(=O)NCC(C)(C)c2ccc(Cl)c(Cl)c2)cc(C(C)(C)C)c1O [Example 77, N-[2-(3,5-di-tert-butyl-4-hydroxyphenethyl)phenyl]-N'-[2-(3,4-dichlorophenyl)-2-methylpropyl]urea] | 96% | 95% | 
CC(C)(C)c1cc(CCc2ccccc2NC(=O)NC2CCN(Cc3ccc(F)cc3F)CC2)cc(C(C)(C)C)c1O [Example 80, N-[2-(3,5-di-tert-butyl-4-hydroxyphenethyl)phenyl]-N'-[1-(2,4-difluorobenzyl)-4-pyperidyl]urea] | 92% | 96% | 
CC(C)(C)c1cc(CCc2ccccc2NC(=O)NC2CCN(Cc3ccc(C(F)(F)F)cc3C(F)(F)F)CC2)cc(C(C)(C)C)c1O [Example 85, N-[2-(3,5-di-tert-butyl-4-hydroxyphenethyl)phenyl]-N'-[1[-2,4-bis(trifluoromethyl)benzyl]-4-piperidyl]urea] | 97% | 94% | 
CC(C)(C)c1cc(CCc2ccccc2NC(=O)NCC2CCCCC2)cc(C(C)(C)C)c1O [Example 90, N-[2-(3,5-di-tert-butyl-4-hydroxyphenethyl)phenyl]-N'-(cyclohexylmethyl)urea] | 92% | 93% | 
CC(C)(C)CN1CCC(NC(=O)Nc2ccccc2CCc2cc(C(C)(C)C)c(O)c(C(C)(C)C)c2)CC1 [Example 97, N-[2-(3,5-di-tert-butyl-4-hydroxyphenethyl)phenyl]-N'-[1-(2,2-dimethylpropyl)-4-piperidyl]urea] | 89% | 96% | 
CN(C(=O)Nc1ccccc1CCc1cc(C(C)(C)C)c(O)c(C(C)(C)C)c1)C1CCCN(Cc2ccccc2)C1 (stereo not drawn) [Example 99, N-[2-(3,5-di-tert-butyl-4-hydroxyphenethyl)phenyl]-N'-(1-benzyl-3-piperidyl)-N'-methylurea] | 100% | 95% | 
CCCCCCCN(C)C(=O)Nc1ccccc1/C=C/c1cc(C(C)(C)C)c(O)c(C(C)(C)C)c1 [Example 105, N-[2-(3,5-di-tert-butyl-4-hydroxystyryl)phenyl]-N'-methyl-N'-heptylurea] |  |  | 45.9%
CC(C)(C)c1cc(CCc2ccccc2NC(=O)N2CCN(Cc3ccccc3)CC2)cc(C(C)(C)C)c1O [Example 114, 1-Benzyl-4-[N-[2-(3,5-di-tert-butyl-4-hydroxyphenethyl)phenyl]carbamoyl]piperazine] | 82% | 98% | 
CC(C)(C)c1cc(CCc2ccccc2NC(=O)N2CCC(Cc3ccccc3)CC2)cc(C(C)(C)C)c1O [Example 115, 4-Benzyl-1-[N-[2-(3,5-di-tert-butyl-4-hydroxyphenethyl)phenyl]carbamoyl]piperidine] | 87% | 98% | 
CC(C)(C)c1cc(CCc2ccccc2NC(=O)N2CCc3ccccc3C2)cc(C(C)(C)C)c1O [Example 117, 2-[N-[2-(3,5-di-tert-butyl-4-hydroxyphenethyl)phenyl]carbamoyl]-1,2,3,4-tetrahydroisoquinoline] | 91% | 97% | 
CC(C)(C)c1cc(CCc2ccccc2NC(=O)N2CCN(c3ccccc3)CC2)cc(C(C)(C)C)c1O [Example 124, 1-[N-[2-(3,5-di-tert-butyl-4-hydroxyphenethyl)phenyl]carbamoyl]-4-phenylpiperazine] | 81% | 95% | 
